According to EP2570123A1, “Use of 2,4-dichlorobenzyl alcohol having an anaesthetic effect” (Reckitt Benckiser Healthcare (UK) Limited, priority 2007, dated 2009):

Legend:
[1] = biological target: T1, α-subunit of NaV1.2 neuronal sodium channels (Rattus norvegicus, UniProt P04775); experiment: Whole-cell voltage-clamp, double-pulse protocol: steady-state availability (fast inactivation), voltage shift and model-dependent affinity for inactivated channels; type: cell-based; parameters: expressed in transfected cells; host or cells: HEK 293, stably transfected with expression vector pRc/CMV and selected with G418; settings: for nHI: Hill coefficient for inactivated state binding, model fit of Eq.4; for maximum shift in voltage-dependence of sodium channel availability: negative shift in midpoints of steady-state availability plots
Procedure: Transfection was performed using calcium phosphate precipitation. […] Successful channel expression was verified electrophysiologically.
The bath solution contained [mM] […] Patch electrodes contained [mM]
Each cell was exposed to one test concentration only.
Experiments with a rise in series resistance were rejected.
Drug binding to inactivated channels is hardly accessible to a direct experimental approach, because inactivated channel states and all drug-bound channel states are unavailable on depolarization. A model-dependent method is generally applied to determine the affinity to fast-inactivated channel states. The voltage-dependence of the block and the affinity for fast-inactivated channel states was further assessed by applying a double-pulse protocol. Currents elicited by test pulses (Itest), starting from varying prepulse potentials (from -150 mV to -5 mV), normalized to the current elicited at the most hyperpolarized prepotential (-150 mV), represent the relative fraction of channels that have not been inactivated during the 100 ms inactivating prepulse. Boltzmann fits to the resulting current-voltage plots yield the membrane potential at half-maximum channel availability (V0.5) and the slope factor k, reflecting the 'voltage sensitivity' of inactivation gating (see Eq. 3). (I)/(Imax) = (1)/(1 + e^(((Vtest -V0.5)/(k)))) [formula]
In control conditions, the parameters of the Boltzmann fits reflect the voltage-dependence of the distribution between resting and fast-inactivated channels (the availability curve). In the presence of the drug, the steady-state availability curve reflects drug association with rested and fast-inactivated channels, respectively. […] The underlying assumption is that the higher amount of channel blockade achieved with consecutive membrane depolarization is determined by the distribution of channels between resting and fast-inactivated states along the voltage axis (i.e. the channel availability curve), and by the different binding affinities of the blocking drug for the two channel states. The voltage shift ΔV0.5 in the presence of a drug would depend upon the drug concentration [C] according to Eq. 4. A fit of the model to ΔV0.5 plotted against concentration yields estimates for the concentration for half-maximum effect on fast-inactivated channels ICI50 and the Hill-type coefficient for drug binding to inactivated channels n: ΔV0.5 = k.ln[(1+([C])/(ICR50))/(1+(([C])^n)/(ICR50^n)) [formula]
K and ICR50 are entered as constant factors. K is the slope factor of the availability curve in the controls and ICR50 is the concentration for half-maximum effect on resting channels, obtained at -100 mV holding potential.

[2] = biological target: T1, α-subunit of NaV1.2 neuronal sodium channels; experiment: cell-based; settings: for sensitivity at -70 mV holding potential compared to hyperpolarized holding potentials: -70 mV versus -100 and/or -150 mV; for nHR: Hill coefficient, resting state binding; for blocking potency compared with lidocaine (words): block of resting channels
Procedure: Stably transfected HEK 293 cell lines expressing the α-subunit of NaV1.2 neuronal sodium channels from a rat were used. The expression vector pRc/CMV (Invitrogen, San Diego, USA) was used for mammalian transfection. Transfection was performed using calcium phosphate precipitation. Permanent expression was achieved by selection for resistance to the aminoglycoside antibiotic geneticin G418 (Life Technology, Eggenstein, Germany).
The stock solution was then dissolved directly in bath solution. The bath solution contained [mM] NaCl 140, MgCl2 1.0, KCl 4.0, CaCl2 2.0, Hepes 5.0, dextrose 5.0. Patch electrodes contained [mM] CsCl2 130, MgCl2 2.0, EGTA 5.0, Hepes 10. All solutions were adjusted to 290 mosm 1^-1 by the addition of mannitol and to pH 7.4 by the addition ofCsOH.
Standard whole-cell voltage-clamp experiments were performed at 20°C. Each experiment consisted of test recordings with the drug present at only one concentration, and of drug-free control recordings before and after the test. Each cell was exposed to one test concentration only. At least three or five independent experiments were performed at each concentration depending on the active being tested.
For data acquisition and further analysis, a EPC9 digitally-controlled amplifier was used in combination with Pulse and Pulse Fit software (HEKA Electronics, Lambrecht, Germany). The EPC9 provides automatic subtraction of capacitive and leakage currents by means of a prepulse protocol. The data were filtered at 10 kHz and digitized at 20 µs per point. The input resistance of the patch pipettes was 2.0-3.5 MΩ and the capacitances of the cells were 9-15 pF; the residual series resistance (after 50% compensation) was 1.2-2.5 MΩ. Experiments with a rise in series resistance were rejected. To minimize time-dependent shifts in the voltage-dependence of steady-state inactivation, all test experiments were performed within 5 min of patch rupture.
Drug effects on the peak current amplitude were assessed at a hyperpolarized membrane potentials (-100 mV and -150mV), at a holding potential close to the normal resting potential in physiological conditions (-70 mV), and, additionally, at -100 mV in the presence of a fraction of slow inactivated channels. Slow inactivation was induced by long (2.5 s) prepulses to -90, -70, -50, -30 and -10 mV, followed by a short hyperpolarization to allow recovery from fast-inactivation. In our protocol the recovery interval was prolonged to 100 ms (instead of 10 ms originally described) in order to allow sufficient time not only for drug-free, but also for all drug-bound states to recover from fast inactivation. The residual sodium current (Inorm) in the presence of a drug (with respect to the peak current elicited with the same protocol during wash-out) elicited with a single test pulse to 0 mV was plotted against the applied concentration of the drug [C]. Concentration-response-curves were fitted using a Hill equation yielding the concentrations for half-maximum channel blockade (ICR50), and the respective Hill coefficients nH. (I)/(Imax) = (IC50^nH)/(IC50^nH + C^nH) [formula] (I)/(Imax) = a(ICR50^nH)/(ICR50^nH + C^nH) + (1-a)(ICI50^nH)/(ICI50^nH + C^nH) [formula]
In the presence of Hexetidine, a 2-state Hill equation, Eq. 2, was applied, yielding the concentrations for half-maximum channel blockade in the inactivated state (ICI50), the respective Hill coefficient nH, and the respective amplitudes a and (1-a). The values previously obtained for ICR50 and nH were entered as constant factors.

[3] = -100 mV, after application of higher concentrations (> EC50)
[4] = estimate for inactivated channels, model fit of Eq.4 to concentration-dependence of the voltage shift in the availability curve, read-out: ECI50
[5] = ECR50, half maximum blocking concentration, resting channels, fit to concentration-response plots at -150 mV holding potential, HEK 293, 20°C

T1 sequence (P04775 whole entry): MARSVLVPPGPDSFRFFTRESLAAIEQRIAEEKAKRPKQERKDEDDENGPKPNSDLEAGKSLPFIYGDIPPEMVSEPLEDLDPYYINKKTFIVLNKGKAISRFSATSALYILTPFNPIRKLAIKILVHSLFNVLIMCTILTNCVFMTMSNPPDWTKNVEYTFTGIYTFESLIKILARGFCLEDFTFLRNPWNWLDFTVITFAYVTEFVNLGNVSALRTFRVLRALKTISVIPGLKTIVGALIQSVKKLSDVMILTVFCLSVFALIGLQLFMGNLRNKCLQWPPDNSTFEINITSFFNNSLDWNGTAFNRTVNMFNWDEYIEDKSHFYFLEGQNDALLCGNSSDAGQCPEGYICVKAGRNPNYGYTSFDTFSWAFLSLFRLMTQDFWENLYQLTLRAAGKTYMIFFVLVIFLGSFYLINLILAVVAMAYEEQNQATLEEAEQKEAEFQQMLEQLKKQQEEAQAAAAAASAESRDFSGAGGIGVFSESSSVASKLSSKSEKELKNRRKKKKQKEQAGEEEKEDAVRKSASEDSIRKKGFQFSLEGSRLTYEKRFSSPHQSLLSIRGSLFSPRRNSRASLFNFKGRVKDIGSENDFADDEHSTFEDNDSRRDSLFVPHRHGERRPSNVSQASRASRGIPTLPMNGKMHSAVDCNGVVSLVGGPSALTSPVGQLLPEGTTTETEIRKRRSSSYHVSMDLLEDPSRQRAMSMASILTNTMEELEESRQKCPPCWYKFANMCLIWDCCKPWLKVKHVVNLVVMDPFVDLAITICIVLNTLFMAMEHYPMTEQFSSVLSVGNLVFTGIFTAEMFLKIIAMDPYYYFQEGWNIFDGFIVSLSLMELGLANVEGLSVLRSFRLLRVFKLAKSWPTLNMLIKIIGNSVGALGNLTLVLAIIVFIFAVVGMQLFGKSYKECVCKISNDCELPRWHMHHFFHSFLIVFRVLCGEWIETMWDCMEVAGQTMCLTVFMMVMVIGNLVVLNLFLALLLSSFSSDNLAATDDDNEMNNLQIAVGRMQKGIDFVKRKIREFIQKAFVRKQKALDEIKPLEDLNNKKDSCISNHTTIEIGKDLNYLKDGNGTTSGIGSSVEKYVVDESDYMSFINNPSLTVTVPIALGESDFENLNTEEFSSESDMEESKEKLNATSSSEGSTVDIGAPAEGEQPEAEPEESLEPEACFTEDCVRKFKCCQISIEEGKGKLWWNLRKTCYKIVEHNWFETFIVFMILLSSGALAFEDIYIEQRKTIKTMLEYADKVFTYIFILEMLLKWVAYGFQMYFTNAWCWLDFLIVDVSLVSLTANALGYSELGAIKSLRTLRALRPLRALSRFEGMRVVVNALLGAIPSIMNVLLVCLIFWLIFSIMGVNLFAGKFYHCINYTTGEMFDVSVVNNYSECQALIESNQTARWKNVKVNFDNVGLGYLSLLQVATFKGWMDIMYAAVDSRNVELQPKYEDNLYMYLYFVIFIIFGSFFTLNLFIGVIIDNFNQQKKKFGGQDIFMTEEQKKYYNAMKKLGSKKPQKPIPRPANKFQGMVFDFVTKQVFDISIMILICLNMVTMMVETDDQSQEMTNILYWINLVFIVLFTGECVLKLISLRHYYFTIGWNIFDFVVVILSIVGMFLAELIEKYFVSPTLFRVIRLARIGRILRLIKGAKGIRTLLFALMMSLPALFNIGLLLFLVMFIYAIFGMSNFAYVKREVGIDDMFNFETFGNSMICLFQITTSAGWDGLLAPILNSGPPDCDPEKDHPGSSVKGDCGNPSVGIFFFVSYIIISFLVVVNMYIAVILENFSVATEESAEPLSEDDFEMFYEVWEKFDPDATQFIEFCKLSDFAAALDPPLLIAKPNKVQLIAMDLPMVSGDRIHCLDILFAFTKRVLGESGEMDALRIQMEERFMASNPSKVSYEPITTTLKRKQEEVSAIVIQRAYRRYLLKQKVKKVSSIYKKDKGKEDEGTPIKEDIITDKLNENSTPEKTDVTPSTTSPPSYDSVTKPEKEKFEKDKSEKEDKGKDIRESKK

| IC50 [1, 4] [µM] | IC50 [2, 5] [µM] | Structure (SMILES) | currents during wash-out, % of control current ([2]; -70 mV holding potential) [%] | currents during wash-out, % of control current ([2]; -100 mV holding potential) [%] | currents during wash-out, % of control current [2, 3] [%] | currents during wash-out, % of control current ([2]; -150 mV holding potential) [%] | estimated affinity to inactivated channels compared to resting channels [1] | nHI [1] | maximum shift in voltage-dependence of sodium channel availability [1] [mV] | sensitivity at -70 mV holding potential compared to hyperpolarized holding potentials [2] | nHR ([2]; -150 mV holding potential) | further results |
| --- | --- | --- | --- | --- | --- | --- | --- | --- | --- | --- | --- | --- |
|  |  | CCCCCc1ccc(C)cc1O [AMC, amylmetacresol] | 64 ± 9 | 91 ± 3 | 94 ± 6 | 90 ± 3 |  |  |  |  |  | IC50 [1]: 22 µM; ECI50 lower than the ECR50 ([1]; inactivated versus resting channels): around 3 fold; IC50 [2]: 55 µM; potency for block of resting sodium channels relative to lidocaine ([2]; depolarization from the resting state): around 10 fold |
| 0.3 | 21 | CCCCCCc1ccc(O)cc1O [HR, hexylresorcinol] |  | 94 ± 4 | 90 ± 10 | 95 ± 3 |  |  |  |  |  |  |
| 0.05 | 35 | CCCCC(CC)CN1CN(CC(CC)CCCC)CC(C)(N)C1 (stereo not drawn) [HT, hexetidine] | 47 ± 11 |  |  | 80 ± 8 | several fold higher | 0.5 | -21 | increased | 1.08 | concentrations toxic for the seal in whole cell experiments [2]: above 30 µM; block of sodium inward currents ([2]; 100 µM, 3 experiments, not solely attributable to specific channel block): complete block; IC50 ([2]; estimated EC50, high-affinity binding site, biphasic concentration-response curve, two distinct binding sites): 0.001 µM; inhibition at 0.1 µM ([2]; read-out: block, % of the control current amplitude): 41 ± 13% |

| Structure (SMILES) | IC50 [1, 4] [µM] | IC50 [2, 5] [µM] | currents during wash-out, % of control current ([2]; -70 mV holding potential) [%] | currents during wash-out, % of control current ([2]; -100 mV holding potential) [%] | currents during wash-out, % of control current [2, 3] [%] | currents during wash-out, % of control current ([2]; -150 mV holding potential) [%] | estimated affinity to inactivated channels compared to resting channels [1] | nHI [1] | maximum shift in voltage-dependence of sodium channel availability [1] [mV] | sensitivity at -70 mV holding potential compared to hyperpolarized holding potentials [2] | nHR ([2]; -150 mV holding potential) | further results |
| --- | --- | --- | --- | --- | --- | --- | --- | --- | --- | --- | --- | --- |
| OCc1ccc(Cl)cc1Cl [DCBA, 2,4-dichlorobenzyl alcohol] | 5.2 | 657 | 63 ± 9 | 89 ± 5 |  | 88 ± 3 | several fold higher | 0.4 | -15 | slightly increased | 3.5 | currents during wash-out, % of control current amplitude ([2]; -100 mV holding potential, after 300 and 500 µM DCBA): 71 ± 3%; blocking potency compared with lidocaine (words) ([2]; listed as Dichlorobenzyl alcohol): about as potent as lidocaine; blocking potency compared with lidocaine (words) ([2]; listed as dichlorobenzyl alcohol): comparable |
